# According to US20090081717A1, “Compositions and Methods For Signal Generation” (priority 2007, published 2009):
# Read-outs that look alike come from different tables or passages of the source.
# Assays:
# alkaline phosphatase = settings: 1×10^−12 moles alkaline phosphatase in 0.1 M Tris, pH 9.0, 45 sec at room temperature, measured 1 sec
# Description: A substrate solution containing 0.8 mg/ml 3-indoxyl phosphate bis(2-amino-2-methyl-1,3-propanediol) salt (Biosynth International) and 0.4 mg/ml lucigenin (Sigma Aldrich) was prepared in 0.1 M Tris buffer, pH 9.0. 10 ul of the sample (blank (0.1 M Tris, pH 9.0 or 1×10^−12 moles alkaline phosphatase in 0.1 M Tris, pH 9.0) was added to plastic tubes. 50 ul of the substrate containing 0% DMSO, 0.1% DMSO (v/v), 1% DMSO) (v/v), 10% DMSO (v/v) and 20% DMSO (v/v) was added to respective tubes and water was added to the substrate in appropriate percentage as a control. The reaction was incubated for 45 sec at room temperature and chemiluminescence was measured for 1 sec using an Optocomp I (MGM) luminometer.
# [1] = Chemiluminescence of indoxyl phosphate substrate solution with blank sample (no enzyme); type: biochemical; settings: blank sample 0.1 M Tris, pH 9.0, no enzyme
smiles,measurement,setting,value
"CC(N)(CO)CO.CC(N)(CO)CO.O=P(O)(O)Oc1c[nH]c2ccccc12 [3-indoxyl phosphate bis(2-amino-2-methyl-1,3-propanediol) salt]",Alkaline phosphatase chemiluminescence,alkaline phosphatase; substrate with 0 vol % DMSO,"895,068 Relative light unit"
same,Alkaline phosphatase chemiluminescence,alkaline phosphatase; substrate with 0.1 vol % DMSO,"899,207 Relative light unit"
same,Alkaline phosphatase chemiluminescence,alkaline phosphatase; substrate with 1 vol % DMSO,"1,101,369 Relative light unit"
same,Alkaline phosphatase chemiluminescence,alkaline phosphatase; substrate with 10 vol % DMSO,"1,909,745 Relative light unit"
same,Alkaline phosphatase chemiluminescence,alkaline phosphatase; substrate with 20 vol % DMSO,"2,375,681 Relative light unit"
same,Blank chemiluminescence,[1]; substrate with 0 vol % DMSO,472 Relative light units
same,Blank chemiluminescence,[1]; substrate with 0.1 vol % DMSO,511 Relative light units
same,Blank chemiluminescence,[1]; substrate with 1 vol % DMSO,569 Relative light units
same,Blank chemiluminescence,[1]; substrate with 10 vol % DMSO,1214 Relative light units
same,Blank chemiluminescence,[1]; substrate with 20 vol % DMSO,1917 Relative light units
